Like-named read-outs stand apart in the source and are kept apart here.
Columns and labels:
K. pneumoniae EN006 = assay: MIC, WT (EN006 = EN0006, ATCC 13883); type: cell-based, Klebsiella pneumoniae; settings: Klebsiella pneumoniae, EN006, combination AZT+trimethoprim+uridine, Table 6; read-out: MIC
K. pneumoniae EN0144 = assay: MIC, MBL (VIM-1); type: cell-based; settings: Klebsiella pneumoniae, EN0144, combination didanosine+trimethoprim+uridine, Table 20; read-out: MIC
K. pneumoniae EN0140 = assay: MIC, AmpC (DHA-1); type: cell-based; settings: Klebsiella pneumoniae, EN0140, combination didanosine+trimethoprim+uridine, Table 20; read-out: MIC
K. pneumoniae EN0145 = assay: MIC, KPC-2; type: cell-based; settings: Klebsiella pneumoniae, read-out: MIC
P. aeruginosa EN0460 = assay: MIC; type: cell-based, Pseudomonas aeruginosa; settings: Pseudomonas aeruginosa, read-out: MIC
M. luteus EN0455 = assay: MIC; type: cell-based, Micrococcus luteus; settings: Micrococcus luteus, read-out: MIC
A. baumannii EN016 = assay: MIC, WT; type: cell-based, Acinetobacter baumannii; settings: Acinetobacter baumannii, read-out: MIC
S. sonnei APV00908 = assay: MIC and antibiogram; type: cell-based; settings: Shigella sonnei, Table 22A
E. coli EN002 = assay: MIC, DtoIC; type: cell-based, Escherichia coli; settings: Escherichia coli, read-out: MIC
S. epidermidis EN0456 = assay: MIC; type: cell-based, Staphylococcus epidermidis; settings: Staphylococcus epidermidis, read-out: MIC
E. coli EN0235 = assay: microbe, parasite or virus in culture; type: cell-based; settings: Escherichia coli
P. mirabilis ST19 EN0445 = assay: MIC; type: cell-based, Proteus mirabilis; settings: Proteus mirabilis, read-out: MIC
E. coli EN0136 = assay: MIC, ESBL (CTX-M-2); type: cell-based; settings: Escherichia coli, read-out: MIC
A. baumannii EN007 = assay: MIC, WT (EN007 = EN0007); type: cell-based, Acinetobacter baumannii
S. marescens EN0454 = assay: MIC; type: cell-based, Serratia marescens; settings: Serratia, read-out: MIC
K. pneumoniae EN0244 = assay: MIC, colistinR; type: cell-based; settings: Klebsiella pneumoniae, EN0244, combination didanosine+trimethoprim+uridine, Table 20; read-out: MIC

For O=c1ccn([C@@H]2O[C@H](CO)[C@@H](O)[C@H]2O)c(=O)[nH]1 [Uridine, uridine], the MIC (K. pneumoniae EN006) was 16 mg/L, the MIC (K. pneumoniae EN0144) was > 400 mg/L and the MIC (K. pneumoniae EN0140) was > 400 mg/L. The MIC (K. pneumoniae EN0145; EN0145, combination FdUrd+trimethoprim+uridine, Table 19) was > 400 mg/L, the MIC (K. pneumoniae EN0145; EN0145, combination didanosine+trimethoprim+uridine, Table 20) was > 400 mg/L and the MIC (P. aeruginosa EN0460; EN0460, Combination 1 AZT+trimethoprim+uridine, Table 16) was > 400 mg/L. The MIC (P. aeruginosa EN0460; EN0460, Combination 2 AZT+trimethoprim+uridine+thymidine, Table 16) was > 400 mg/L, the MIC (P. aeruginosa EN0460; EN0460, combination AZT+trimethoprim+uridine, Table 6) was > 1000 mg/L and the MIC (P. aeruginosa EN0460; EN0460, combination FdUrd+trimethoprim+uridine, Table 8) was > 400 mg/L. For the same compound, the MIC (P. aeruginosa EN0460; EN0460, combination didanosine+trimethoprim+uridine, Table 10) was > 400 mg/L, the MIC (M. luteus EN0455; EN0455, Combination 1 AZT+trimethoprim+uridine, Table 16) was 200 mg/L and the MIC (M. luteus EN0455; EN0455, Combination 2 AZT+trimethoprim+uridine+thymidine, Table 16) was > 400 mg/L. The MIC (M. luteus EN0455; EN0455, combination AZT+trimethoprim+uridine, Table 6) was 500 mg/L, the MIC (M. luteus EN0455; EN0455, combination FdUrd+trimethoprim+uridine, Table 8) was 200 mg/L and the MIC (M. luteus EN0455; EN0455, combination didanosine+trimethoprim+uridine, Table 10) was 200 mg/L. The MIC (A. baumannii EN016; EN016, Combination 1 AZT+trimethoprim+uridine, Table 16) was > 400 mg/L, the MIC (A. baumannii EN016; EN016, Combination 2 AZT+trimethoprim+uridine+thymidine, Table 16) was > 400 mg/L and the MIC (A. baumannii EN016; EN016, combination AZT+trimethoprim+uridine, Table 6) was > 1000 mg/L. The MIC (A. baumannii EN016; EN016, combination FdUrd+trimethoprim+uridine, Table 8) was 400 mg/L, the MIC (A. baumannii EN016; EN016, combination didanosine+trimethoprim+uridine, Table 10) was > 400 mg/L and the MIC (S. sonnei APV00908; APV00908, combination AZT+trimethoprim+uridine) was 3 mg/L. For the same compound, the MIC (S. sonnei APV00908; APV00908, combination FdUrd+trimethoprim+uridine) was > 400 mg/L, the MIC (E. coli EN002; EN002, Combination 2 AZT+trimethoprim+uridine+thymidine, Table 16) was 12.5 mg/L and the MIC (E. coli EN002; EN002, combination AZT+trimethoprim+uridine, Table 6) was 4 mg/L. For the same compound, the MIC (E. coli EN002; EN002, combination FdUrd+trimethoprim+uridine, Table 8) was 6 mg/L, the MIC (E. coli EN002; EN002, combination didanosine+trimethoprim+uridine, Table 10) was 6 mg/L and the MIC (S. epidermidis EN0456; EN0456, Combination 1 AZT+trimethoprim+uridine, Table 16) was 66.4 mg/L. The MIC (S. epidermidis EN0456; EN0456, Combination 2 AZT+trimethoprim+uridine+thymidine, Table 16) was 200 mg/L, the MIC (S. epidermidis EN0456; EN0456, combination AZT+trimethoprim+uridine, Table 6) was 16 mg/L and the MIC (S. epidermidis EN0456; EN0456, combination FdUrd+trimethoprim+uridine, Table 8) was < 0.8 mg/L. The MIC (S. epidermidis EN0456; EN0456, combination didanosine+trimethoprim+uridine, Table 10) was 6 mg/L, the MIC (E. coli EN0235; EN0235, combination FdUrd+trimethoprim+uridine, Table 19) was 6 mg/L and the MIC (E. coli EN0235; EN0235, combination didanosine+trimethoprim+uridine, Table 20) was 13 mg/L. For the same compound, the MIC (P. mirabilis ST19 EN0445; ST19EN0445, Combination 2 AZT+trimethoprim+uridine+thymidine, Table 16) was > 400 mg/L, the MIC (P. mirabilis ST19 EN0445; ST19EN0445, combination AZT+trimethoprim+uridine, Table 6) was > 1000 mg/L and the MIC (E. coli EN0136; EN0136, combination AZT+trimethoprim+uridine, Table 17B) was 13 mg/L. The MIC (E. coli EN0136; EN0136, combination didanosine+trimethoprim+uridine, Table 20) was > 400 mg/L, the MIC (A. baumannii EN007; Acinetobacter baumannii, EN007, Combination 1 AZT+trimethoprim+uridine, Table 16, read-out: MIC) was > 400 mg/L and the MIC (A. baumannii EN007; Acinetobacter baumannii, EN007, Combination 2 AZT+trimethoprim+uridine+thymidine, Table 16, read-out: MIC) was > 400 mg/L. The MIC (A. baumannii EN007; Acinetobacter baumannii, EN007, combination AZT+trimethoprim+uridine, Table 6, read-out: MIC) was > 1000 mg/L, the MIC (A. baumannii EN007; Acinetobacter baumannii, EN007, combination FdUrd+trimethoprim+uridine, Table 8, read-out: MIC) was > 400 mg/L and the MIC (A. baumannii EN007; Acinetobacter baumannii, EN007, combination didanosine+trimethoprim+uridine, Table 10, read-out: MIC) was > 400 mg/L. For the same compound, the MIC (A. baumannii EN007; combination AZT+trimethoprim+uridine, Table 17B) was >400 mg/L, the MIC (A. baumannii EN007; combination FdUrd+trimethoprim+uridine, Table 19) was >400 mg/L and the MIC (A. baumannii EN007; combination didanosine+trimethoprim+uridine, Table 20) was >400 mg/L. For the same compound, the MIC (S. marescens EN0454; EN0454, Combination 1 AZT+trimethoprim+uridine, Table 16) was > 400 mg/L, the MIC (S. marescens EN0454; EN0454, Combination 2 AZT+trimethoprim+uridine+thymidine, Table 16) was > 400 mg/L and the MIC (S. marescens EN0454; EN0454, combination didanosine+trimethoprim+uridine, Table 10) was > 400 mg/L. For the same compound, the MIC (K. pneumoniae EN0244) was > 400 mg/L.

Source: US10828317B2, “Method of treating bacterial infections” (priority 2016, dated 2020)
